According to patent US6710060B2, “4-hydroxypiperidine derivatives having antiarrhythmic activity” (Mochida Pharmaceutical Co., Ltd., priority 1999, dated 2004):
Counter-ions that a name gives are not always drawn.

test system: isolated cardiac muscle cells; assay: Suppression activity of veratrine-induced contracture of isolated cardiac muscle; type: cell-based; details: Cardiac muscle cell, 5 min; rat isolated cardiac muscle cells, veratrine 100 gg/mL, 5 minutes after addition, probit analysis; read-out: IC50 (concentration of the test compound when half of the cells were contracted)
Protocol: [Suppression Activity of Veratrine-Induced Contracture of Isolated Cardiac Muscle]
Rats were anesthetized with 40 mg/kg (i.p.) of pentobarbital sodium and held in supine postion, and heparin was injected through the jugular vein. […] A polyethylene tube filled with Krebs-Ringer-HEPES (KRH) solution (pH 7.4) containing 1 mM CaCl2 was inserted through the aorta in retrograde manner, and the tube was fixed. The heart was extracted simultaneously with perfusion of the KRH solution at a hydraulic pressure of 70 cm water column. After thoroughly flushing the remaining blood by spontaneous contraction of the heart, stroke of the heart was halted by perfusion of the Ca^2+ free KRH solution for 10 minutes. The perfusion solutions described above were used after oxygenation with a mixed gas containing 95% O2 and 5% CO2 and keeping at a temperature of 37° C. Then, a KRH solution containing 25 μM CaCl2, 0.06% collagenase and 0.1% albumin was perfused for 20 minutes at 37° C. until the heart was soften. The ventricles were cut into pieces in the collagenase solution at 37° C., followed by an enzyme treatment for 10 minutes while aerating the solution with the mixed gas of 95% O2/5% CO2. The cells were dispersed by pipetting, and connective tissues were removed from the dispersed cells by filtering with a stainless steel mesh. After halting the enzyme reaction by adding albumin in the filtrate, the supernatant was discarded by centrifugation. The cells were suspended in the KRH solution containing 25 μM CaCl2 and 1% albumin, and the Ca^2+ concentration was increased stepwise by sequentially adding the CaCl2 solution in the suspension to a final concentration of 0.5 mM. A pellet of the cells was obtained by centrifugation after allowing the suspension to stand for 10 minutes. The pellet of the cells was laid on a column (10 cm in height and 15 mm in diameter) filled with the KRH solution containing 1 mM CaCl2 and 2% albumin, and the column was allowed to stand for 5 to 10 minutes. The supernatant was gently removed, and the number of rod-shaped cells in the precipitated cells was counted. The cells were re-suspended in the KRH solution containing 1 mM CaCl2 and 0.1% albumin, and pipetted into each well of a 48 well multi-plate (3548, COSTER) coated with poly-L-lysine so that each well contains 0.5 mL of the cell suspension with 1×10^4 cells/well. The suspension in each well was aerated with a mixed gas of 95% O2/5% CO2 at 37° C. for 1 hour to allow the cells to adhere on the bottom of the well. […] Then, the medium was replaced with a KRH solution containing a test compound, 0.025% lactic acid and 1 mM CaCl2, followed by aerating with a mixed gas containing 95% O2/5% CO2 at 37° C. for 30 minutes. After taking a photograph under a microscope, a KRH solution containing veratrine, 0.025% lactic acid and 1 mM CaCl2 was added to each well so that the final concentration of veratrin becomes 100 gg/mL, followed by taking a photograph of morphological changes of the cells after 5 minutes passed from the addition. A change from the rod-shape cell to a spherical cell was defined as contraction by veratrine. Veratrine in this concentration can contract all the cells. The concentration of the test compound when half of the cells were contracted was defined as IC50 (μmol/L) that can be calculated by a probit analysis.

For `CCCCOc1ccc(N(C)CCC2(O)CCN(CCc3ccc(F)cc3)CC2)cc1` [Example 176, 4-[2-[N-(4-n-butoxyphenyl)-N-methylamino]ethyl]-1-[2-(4-fluorophenyl)ethyl]piperidin-4-ol dihydrochloride], which IC50 is on record?
Its IC50 is 900 nM.

For `CCCCOc1ccc(N(C)CCC2(O)CCN(CCc3ccc(F)cc3F)CC2)cc1` [Example 183, 4-[2-[N-(4-n-butoxyphenyl)-N-methylamino]ethyl]-1-[2-(2,4-difluorophenyl)ethyl]piperidin-4-ol dihydrochloride], which IC50 is on record?
Its IC50 is 1000 nM.

For `CCCCOc1ccc(N(C)CC2(O)CCN(Cc3ccccc3)CC2)cc1` [Example 210, 1-benzyl-4-[N-(4-n-butoxyphenyl)-N-methylamino]-methylpiperidin-4-ol monomaleate], which IC50 is on record?
The IC50 was 900 nM.

With `CC(C)Oc1ccc(N(C)CCC2(O)CCN(Cc3ccc(Br)cc3)CC2)cc1` [Example 220, 1-(4-bromophenylmethyl)-4-[2-[N-methyl-N-(4-isopropoxyphenyl)amino]ethyl]piperidin-4-ol dihydrochloride] as the molecule, how does the IC50 read?
Its IC50 is 700 nM.

Which IC50 does the source give for `CC(C)Oc1ccc(N(C)CCC2(O)CCN(Cc3ccc(C(F)(F)F)cc3)CC2)cc1` [Example 221, 4-[2-[N-methyl-N-(4-isopropoxyphenyl)amino]ethyl]-1-[4-(trifluoromethyl)phenylmethyl]piperidin-4-ol dihydrochloride] here?
The IC50 was 300 nM.

With `CC(C)Oc1ccc(N(C)CCC2(O)CCN(Cc3ccc(OC(F)(F)F)cc3)CC2)cc1` [Example 236, 4-[2-[N-methyl-N-(4-isopropoxyphenyl)amino]ethyl]-1-(4-trifluoromethoxyphenylmethyl)piperidin-4-ol dihydrochloride] as the molecule, how does the IC50 read?
Its IC50 is 300 nM.

For `CC(C)Oc1ccc(N(C)CCC2(O)CCN(Cc3ccc(Br)cc3F)CC2)cc1` [Example 240, 1-(4-bromo-2-fluorophenylmethyl)-4-[2-[N-methyl-N-(4-isopropoxyphenyl)amino]ethyl]piperidin-4-ol dihydrochloride], which IC50 is on record?
Its IC50 is 700 nM.

test system: Ischemia-Reperfusion Induced Arrythmia Model in Rats; assay: Suppression effect on ischemia-reperfusion induced arrythmia in rats; type: in vivo, rat; details: Table 2-2; 5 mg/kg by gavage; solvent group 57.1
Protocol: [Suppression Effect on Ischemia-Reperfusion Induced Arrythmia in Rats]
The test compounds were administered to rats starved from a day before by gavage at a dosage of 10 mL/kg under an awaken condition. The rats were anesthetized with 60 mg/kg (i.p.) of sodium pentobarbital after 35 minutes passed from the administration, and were fixed on a warmed sheet in supine position. The body temperature was kept at 37° C. during the experiment, and artificial respiration was started under a condition of 15 mL/Kg and 55 strokes/minutes. […] Then, the left chest was open, and the left major coronary artery at an atrium side was sewed using a needle with a thread in order to ligate the coronary artery. After stabilizing for about 10 minutes (after 60 minutes passed from the administration), the coronary artery was ligated for 5 minutes, and re-perfused for 10 minutes thereafter. The ligation of the coronary artery was conducted by inserting a suture through a snare made of a polyethylene tube and pulling the both ends of the suture, followed by pressing the snare onto the heart. The re-perfusion was conducted by removing the snare. The aortic blood pressure was measured with a pressure transducer. An electrocardiogram was led by a standard lead II. […] After the completion of the experiments, generation of ventricular fibrillation was confirmed for each individual using an analysis software running on the personal computer, and incidence (%) of the ventricular fibrillation was determined for each administration group.

With `CC(C)Oc1ccc(N(C)CCC2(O)CCN(Cc3ccc(Br)cc3F)CC2)cc1` [Example 240, 1-(4-bromo-2-fluorophenylmethyl)-4-[2-[N-methyl-N-(4-isopropoxyphenyl)amino]ethyl]piperidin-4-ol dihydrochloride] as the molecule, how does the “Incidence (%) of the ventricular fibrillation” value read?
The value was 0.0%.

test system: Electrocardiogram in Rats; assay: Effect on electrocardiogram in rats; type: in vivo; details: 5 mg/kg intravenous, anesthetized rat, two minutes after administration
Protocol: [Effect on Electrocardiogram in Rats]
After anesthetizing with 1.5 g/kg (s.c.) of urethane, a rat was fixed on a warm plate at its supination. Polyethylene tubes for administering a test compound and for measuring the blood pressure were inserted into and fixed to the jugular vein and femoral artery, respectively. The blood pressure of the artery was measured using a pressure transducer. An electrode was attached to the animal, electrocardiograms were led by the standard lead II. The heart rate was measured by using a heart rate counter. The test compound was given by intravenous injection when the blood pressure and heat rate had been stabilized after the operation. […] Each parameter on the electrocardiogram was processed using an analysis software running on the personal computer to calculate the rate of change as compared with that before administration.

For `CCCCOc1ccc(N(C)CCC2(O)CCN(Cc3ccc4c(c3)OCO4)CC2)cc1` [Example 162, 4-[2-[N-(4-n-butoxyphenyl)-N-methylamino]ethyl]-1-(3,4-methylenedioxyphenylmethyl)piperidin-4-ol dihydrochloride], which “PQ Distance (rate of change)” value is on record?
Its value is “— (The rate of change at two minutes after administration is 15% or less as compared with that before administration.)”.

What about the “QRS Width (rate of change)” value of the same molecule?
The value was “— (The rate of change at two minutes after administration is 15% or less as compared with that before administration.)”.

For `CCCCOc1ccc(N(C)CCC2(O)CCN(CCc3ccc(F)cc3)CC2)cc1` [Example 176, 4-[2-[N-(4-n-butoxyphenyl)-N-methylamino]ethyl]-1-[2-(4-fluorophenyl)ethyl]piperidin-4-ol dihydrochloride], which “PQ Distance (rate of change)” value is on record?
Its value is “— (The rate of change at two minutes after administration is 15% or less as compared with that before administration.)”.

And the “QRS Width (rate of change)” value?
Its value is “— (The rate of change at two minutes after administration is 15% or less as compared with that before administration.)”.

Which results are given for `CCCCOc1ccc(N(C)CCC2(O)CCN(Cc3ccc(F)cc3)CC2)cc1` [Example 177, 4-[2-[N-(4-n-butoxyphenyl)-N-methylamino]ethyl]-1(4-fluorophenylmethyl)piperidin-4-ol dihydrochloride]?
PQ Distance (rate of change): — (The rate of change at two minutes after administration is 15% or less as compared with that before administration.); QRS Width (rate of change): — (The rate of change at two minutes after administration is 15% or less as compared with that before administration.)

Which “PQ Distance (rate of change)” value does the source give for `CCCCOc1ccc(N(C)CC(O)C2(O)CCN(CCc3ccc(F)cc3)CC2)cc1` (stereo not drawn) [Example 196, 4-[2-[N-(4-n-butoxyphenyl)-N-methylamino]-1-hydroxyethyl]-1-[2-(4-fluorophenyl)ethyl]piperidin-4-ol dihydrochloride] here?
Its value is “— (The rate of change at two minutes after administration is 15% or less as compared with that before administration.)”.

And the “QRS Width (rate of change)” value?
The value was “— (The rate of change at two minutes after administration is 15% or less as compared with that before administration.)”.

For `CCCCOc1ccc(N(C)CCC2(O)CCN(CC(O)c3ccc(F)cc3)CC2)cc1` (stereo not drawn) [Example 198, 4-[2-[N-(4-n-butoxyphenyl)-N-methylamino]ethyl]-1-[2-(4-fluorophenyl)-2-hydroxyethyl]piperidin-4-ol dihydrochloride], which “PQ Distance (rate of change)” value is on record?
Its value is “— (The rate of change at two minutes after administration is 15% or less as compared with that before administration.)”.

What about the “QRS Width (rate of change)” value of the same molecule?
The value was “— (The rate of change at two minutes after administration is 15% or less as compared with that before administration.)”.

Which results are given for `CCCCOc1ccc(N(C)CCC2(OC)CCN(Cc3ccccc3)CC2)cc1` [Example 201, 1-benzyl-4-methoxy-4-[2-[N-(4-n-butoxyphenyl)-N-methylamino]ethyl]piperidine dihydrochloride]?
PQ Distance (rate of change): — (The rate of change at two minutes after administration is 15% or less as compared with that before administration.); QRS Width (rate of change): — (The rate of change at two minutes after administration is 15% or less as compared with that before administration.)

With `CC(C)Oc1ccc(N(C)CCC2(O)CCN(Cc3ccc(C#N)cc3)CC2)cc1` [Example 226, 1-(4-cyanophenylmethyl)-4-[2-[N-methyl-N-(4-isopropoxyphenyl)amino]ethyl]piperidin-4-ol dihydrochloride] as the molecule, how does the “PQ Distance (rate of change)” value read?
The value was “— (The rate of change at two minutes after administration is 15% or less as compared with that before administration.)”.

And the “QRS Width (rate of change)” value?
Its value is “— (The rate of change at two minutes after administration is 15% or less as compared with that before administration.)”.

For `CC(C)Oc1ccc(N(C)CCC2(O)CCN(Cc3ccc(Br)cc3F)CC2)cc1` [Example 240, 1-(4-bromo-2-fluorophenylmethyl)-4-[2-[N-methyl-N-(4-isopropoxyphenyl)amino]ethyl]piperidin-4-ol dihydrochloride], which “PQ Distance (rate of change)” value is on record?
Its value is “— (The rate of change at two minutes after administration is 15% or less as compared with that before administration.)”.

And the “QRS Width (rate of change)” value?
Its value is “— (The rate of change at two minutes after administration is 15% or less as compared with that before administration.)”.

Which “PQ Distance (rate of change)” value does the source give for `CC(C)Oc1ccc(N(C)CCC2(O)CCN(Cc3cccs3)CC2)cc1` [Example 254, 4-[2-[N-methyl-N-(4-isopropoxyphenyl)amino]ethyl]-1(2-thienylmethyl)piperidin-4-ol dihydrochloride] here?
Its value is “— (The rate of change at two minutes after administration is 15% or less as compared with that before administration.)”.

And the “QRS Width (rate of change)” value?
The value was “— (The rate of change at two minutes after administration is 15% or less as compared with that before administration.)”.

test system: not given; assay: not given; details: not given

With `CC(C)Oc1ccc(NCCC2(O)CCN(C(c3ccccc3)c3ccccc3)CC2)cc1` [Example 136, 1-diphenylmethyl-4-[2-[N-(4-isopropoxyphenyl)-amino]ethyl]piperidin-4-ol] as the molecule, how does the melting point read?
Its melting point is 170 to 171.2 °C.
